From patent publication US5432165A, “Methods for the treatment of infection caused by Hepatitis B virus (HBV)” (priority 1992, dated 1995)
Entries after “also recorded” stand apart in the source; their conditions may differ.

Legend:
[1] = Stability in an acid environment; assay type: physicochemical; details: such as is found in the human stomach
[2] = clinical
Procedure: Tolerance to the oral formulation of FIAU was evaluated in relatively healthy HIV-infected patients with Karnofsky performance scores ≥80 and ≥200 CD4 cells/mm^3. Sequential cohorts of ten patients were evaluated in an open and uncontrolled study design. […] Tolerance was determined with concurrent anti-emetic therapy (prochlorperazine or metoclopramide hydrochloride) as necessary for each patient.
This study is an open label, uncontrolled trial. […] Tolerated doses could be studied in an additional five patient cohort of chronic hepatitis B patients, who were potentially more at risk of side effects. A month of post-treatment follow-up was provided for the hepatitis cohorts due to the known propensity of this disease to "flare" after therapy.
Although not formally randomized, qualified patients were to be consecutively enrolled without regard to their disease severity, expected tolerance, or potential benefit of the dose being evaluated. Tolerance to a dose was defined as seven or more of the ten patients in a cohort individually meeting predefined tolerance criteria including successful completion of therapy and limits on changes in particular signs, symptoms and laboratory tests. Tolerance was determined with concurrent anti-emetic therapy for those patients requiring it. Criteria and regimens for such therapy were predefined.
Weight loss was restricted to less than 10% in the past three months and serum CPK was required to be within the normal range.
Patients were evaluated clinically at the screening visit, and on Days 1, 3, 7, 10, and 14. The hepatitis patients were additionally evaluated on Days 21 and 42. The blood chemistry and urinalysis tests were repeated additionally on Days 2 and 5.
Clinical evaluations consisted of a physical exam, which included a test of lower extremity muscle strength, medical history, systems review, grading of non-laboratory signs and symptoms of toxicity, and listing of concomitant medications. Additionally, at visits with clinical evaluations after Day 1, any adverse experiences were recorded.
At the screening visit a chest x-ray, electrocardiogram (ECG), HIV test, T cell profile (CD4 and CD8 counts), serum biochemistry, hematology, urinalysis and stool guaiac tests were obtained in addition to the clinical evaluation. Hematology tests consisted of hemoglobin, hematocrit, RBC, WBC and differential, platelet, reticulocyte count, MCV, MCHC and MCH. Urinalysis tests consisted of color, appearance, pH, specific gravity, bilirubin, protein, glucose, myoglobin, RBCs, WBCs, casts, crystals and bacteria. Serum biochemistry tests consisted of creatinine, uric acid, BUN, total bilirubin, AST, ALT, alkaline phosphatase, LDH, CPK, CPK-MB, glucose, total protein, albumin, globulin, calcium, phosphorus, potassium, sodium, chloride, bicarbonate and aldolase.
The Baseline visit (Day 1) consisted of repeating the clinical evaluation, hematology, serum biochemistry, urinalysis, and stool guaiac tests, and T cell profile. Additionally at Baseline, archive plasma samples were taken. Plasma samples were taken two hours after each patient's first dose of FIAU (peak) and right before the second dose (trough). Thereafter, on Days 3, 7 and 14 additional peak and trough samples were obtained by taking the trough sample just before a patient took a dose of FIAU and the peak sample two hours later. These samples were analyzed by HPLC for levels of FIAU and FAU as low as 0.05 μg/ml for either compound.
The Day 3 safety profile consisted of the clinical evaluation, hematology, serum biochemistry, urinalysis, stool guaiac tests and plasma samples for peak and trough levels of FIAU and its major metabolite FAU. On Day 7 patients underwent clinical evaluation, an ECG, peak and trough serum samples, T cell profile, and hematology, serum biochemistry, urinalysis, and stool guaiac tests. A clinical evaluation, hematology, serum biochemistry, and urinalysis tests were done on Day 10.

[3] = system: hepatitis B virus (HBV); assay: Effect of oral FIAU on plasma HBV DNA and HBV DNA polymerase in HIV-infected patients with chronic hepatitis B; assay type: in vivo, human
Procedure: Effects on hepatitis were evaluated principally by changes in HBV DNA and viral DNA polymerase. Secondary markers were surface antigen and e antigen. The hepatitis tests were done at Baseline and on Days 3, 7, 14, 21 (7 days post-treatment) and 42 (28 days post-treatment).
Of the 13 "tolerance" patients, e.g., non-hepatitis patients, enrolled, all received the study drug and all are included in the safety analysis. […] They had received a single dose of the study drug, and has, therefore, been included in the safety analysis, but excluded from the efficacy analysis. All of the remaining hepatitis patients had sufficient baseline levels of HBV DNA (>20 pg/ml) and viral DNA polymerase (>300 cpm) in their serum to be useful for determining changes associated with FIAU dosing and all completed the full two weeks of dosing. Therefore, the remaining six hepatitis patients were included in both the safety and efficacy analyses.
The results of clinical investigations conducted at submilligram per kilogram daily doses of FIAU are presented below. […]

[4] = Oral FIAU in immune-competent patients with chronic hepatitis B: adverse experiences; assay type: in vivo, human
Procedure: Consecutively qualifying patients will be used for each dose group and patients will not be assigned to dose based on either disease severity or expected tolerance. Tolerance will be determined with antiemetic therapy given concomitantly as necessary should a patient experience sustained nausea or two or more episodes of vomiting. Compazine, 10 mg p.o. Q6H or 25 mg p.r. Q12H will be used.
The side effects that will be monitored will include gastrointestinal irritation, bone marrow suppression, neurologic, and muscular toxicity.

[5] = system: CMV; details: read-out: in vitro ED90; cited from earlier work
[6] = typical; read-out: cellular toxicity concentration (ID50); cited from earlier work
[7] = 1.0 mg/kg-day, non-hepatitis patients, p>0.07
[8] = 1.0 mg/kg-day, ten non-hepatitis patients
[9] = 0.1 mg/kg-day, two patients with HBV DNA under 1000 pg/ml
[10] = 0.5 mg/kg-day, four patients with entry HBV DNA <1000 pg/ml

With `O=c1[nH]c(=O)n([C@@H]2O[C@H](CO)[C@@H](O)[C@@H]2F)cc1I` [FIAU, 1-(2'-deoxy-2'-fluoro-β-D-arabinofuranosyl)-5-iodouracil] the “stability in an acid environment” value [1] was “stable in an acid environment”, the “tolerance of oral FIAU” value ([2]; 1.0 mg/kg-day TID 14 days, HIV-infected patients (ten without chronic hepatitis B)) was “adequately tolerated” and the “average AST value at end of therapy” value ([2]; 1.0 mg/kg-day, non-hepatitis patients, baseline 23.4, p≤0.02) was 29.6. The “average ALT value at end of therapy” value ([2]; 1.0 mg/kg-day, non-hepatitis patients, baseline 27.1, p≤0.02) was 42.3, the “average WBC count at end of therapy” value ([2]; 1.0 mg/kg-day, non-hepatitis patients, baseline average 5,480, p=0.0746) was 4,920 cells/mm^3 and the “average loss of CD4 cells” value ([2]; 1.0 mg/kg-day, non-hepatitis patients, non-significant) was 64 cells/mm^3. The decrease in lymphocytes [2, 7] was “about 300 cells/mm^3”, the decrease in neutrophils [2, 7] was “about 300 cells/mm^3” and the “patients requiring anti-emetic therapy” value [2, 8] was “four required anti-emetic therapy”. The “patients with mild to moderate headache” value [2, 8] was “Five patients complained of mild to moderate headache”, the “patients with mild to moderate nausea” value [2, 8] was “Eight patients experienced mild to moderate nausea” and the “tolerance of oral FIAU” value ([2]; 1.7 mg/kg-day, three non-hepatitis patients) was “not tolerated; also recorded: All three discontinued the study after two to eight days due to severe fatigue”. For the same compound, the MTD at 336 h ([2]; human, in vivo, po, maximum tolerated dose of oral FIAU, HIV-infected population, TID for two weeks) was ≥ 1 mg/kg/day, the “average reduction of serum HBV DNA at Day 3 and One Week visits” value [3, 9] was 60% and the “average reduction of serum HBV DNA by end of therapy at two weeks” value [3, 9] was 93%. For the same compound, the “suppression of serum HBV DNA one week post-treatment” value [3, 9] was 86%, the “drop of HBV DNA by the end of therapy” value ([3]; 0.1 mg/kg-day, two patients with baseline over 1000 pg/ml) was ≤ 25% and the “average HBV DNA level, percent of baseline, end of one week of dosing” value [3, 10] was “less than 20%”. For the same compound, the “average HBV DNA level, percent of baseline, end of two week treatment” value [3, 10] was “less than 10%”, the “drop of average serum HBV DNA after the first two days of therapy” value [3, 10] was 61% and the “suppression of average HBV DNA one month post-treatment” value [3, 10] was “over 75%”. For the same compound, the “drop of serum HBV DNA in one week of therapy” value ([3]; 0.5 mg/kg-day, single patient with baseline above 1000 pg/ml) was 83%, the “effect on plasma HBV DNA and viral DNA polymerase levels” value ([3]; 1.0 mg/kg-day) was “rapid, consistent, profound and prolonged effect” and the “surface antigen and e antigen status” value ([3]; 1.0 mg/kg-day) was “remained positive in all patients to date, with one reported seroreversion of e antigen in Patient 401 approximately 23 weeks post-treatment”. The “continuing suppression of HBV DNA polymerase in serum” value ([3]; 1.0 mg/kg-day, five of the six patients) was > 80%, the “clearing of HBV DNA from the plasma” value ([3]; 1.0 mg/kg-day, four weeks after therapy) was “two of these became totally negative; also recorded: Two showed a complete clearing of HBV DNA from the plasma” and the “average decrease of HBV DNA between Baseline (Day 1) and Day 3” value ([3]; 1.0 mg/kg-day, six patients) was “over 70%”. The “reduction in plasma HBV DNA by the end of therapy” value ([3]; 1.0 mg/kg-day, two weeks, five of the six patients) was “more than 90%”, the “days on which mild fatigue was experienced” value ([4]; 0.05 mpk, patient 1C) was “Day 8” and the “days on which mild fatigue was experienced” value ([4]; 0.1 mpk, individual patients (footnotes a-d: 1A, 2A, 3A, 6A)) was “Days 3, 8, 14, 21, 28, and Week 5; also recorded: Days 7, 14, and 18”. For the same compound, the “days on which mild nausea was experienced” value ([4]; 0.1 mpk, patient 6A) was “Days 3, 7, 14, and 21”, the “days on which mild fatigue was experienced” value ([4]; 0.25 mpk, individual patients (footnotes e, g: 4B, 6B)) was “Days 14, 21, 28, Week 5, and Month 2” and the “days on which mild nausea was experienced” value ([4]; 0.25 mpk, patient 5B) was “Day 3”. For the same compound, the EC90 [5] was ~0.5 µM and the CC50 [6] was ~10 µM.
